ChEMBL document CHEMBL2417365, “Design, synthesis, and in vitro hMAO-B inhibitory evaluation of some 1-methyl-3,5-diphenyl-4,5-dihydro-1H-pyrazoles” (Bioorg Med Chem Lett, 2013)
pIC50: −log10 of the molar value.

How the values were obtained:
Homo sapiens = organism: Homo sapiens; test: Selectivity index, ratio of IC50 for human MAO-A to IC50 for human MAO-B
[1] = target: T1, Amine oxidase [flavin-containing] B (Homo sapiens, UniProt P27338); test: biochemical; format: cell-based, BTI-TN-5B1-4
T1 sequence (P27338 whole entry): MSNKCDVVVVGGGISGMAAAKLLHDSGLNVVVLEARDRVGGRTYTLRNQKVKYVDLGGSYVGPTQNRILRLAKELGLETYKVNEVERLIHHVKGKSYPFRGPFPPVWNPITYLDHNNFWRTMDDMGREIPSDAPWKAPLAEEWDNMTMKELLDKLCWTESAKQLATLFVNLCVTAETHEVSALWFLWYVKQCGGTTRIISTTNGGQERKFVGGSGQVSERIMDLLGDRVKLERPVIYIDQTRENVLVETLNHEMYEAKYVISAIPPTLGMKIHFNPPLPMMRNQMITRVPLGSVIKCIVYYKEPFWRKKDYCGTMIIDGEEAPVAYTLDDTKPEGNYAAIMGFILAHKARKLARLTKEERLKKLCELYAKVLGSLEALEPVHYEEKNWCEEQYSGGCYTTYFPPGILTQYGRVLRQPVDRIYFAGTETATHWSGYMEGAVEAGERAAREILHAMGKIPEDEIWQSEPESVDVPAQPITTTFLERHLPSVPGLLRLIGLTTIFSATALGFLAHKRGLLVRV
Description: Inhibition of human recombinant microsomal MAO-B expressed in baculovirus-infected insect BTI-TN-5B1-4 cells assessed as p-tyramine conversion to H2O2 by fluorescence assay

[2] = target: T2, Amine oxidase [flavin-containing] A (Homo sapiens, UniProt P21397); test: Inhibition of human recombinant microsomal MAO-A expressed in baculovirus-infected insect BTI-TN-5B1-4 cells assessed as p-tyramine conversion to H2O2 by fluorescence assay
T2 sequence (P21397 whole entry): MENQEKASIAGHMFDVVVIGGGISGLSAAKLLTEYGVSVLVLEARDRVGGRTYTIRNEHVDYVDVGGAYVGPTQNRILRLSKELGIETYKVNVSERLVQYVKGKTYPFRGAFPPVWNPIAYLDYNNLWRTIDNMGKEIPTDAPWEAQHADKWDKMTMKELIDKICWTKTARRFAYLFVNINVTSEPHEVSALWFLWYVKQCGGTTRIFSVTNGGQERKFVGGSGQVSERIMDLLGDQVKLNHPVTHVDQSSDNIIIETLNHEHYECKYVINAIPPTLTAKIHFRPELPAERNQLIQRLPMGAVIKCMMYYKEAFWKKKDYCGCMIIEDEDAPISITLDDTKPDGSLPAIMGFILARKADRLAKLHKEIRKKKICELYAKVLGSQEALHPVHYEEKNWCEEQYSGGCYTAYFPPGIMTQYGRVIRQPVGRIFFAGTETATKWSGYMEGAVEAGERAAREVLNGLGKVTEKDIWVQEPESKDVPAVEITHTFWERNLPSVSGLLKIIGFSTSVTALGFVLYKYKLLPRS

[3] = target: T1, Amine oxidase [flavin-containing] B; test: Inhibition of human recombinant microsomal MAO-B expressed in baculovirus-infected insect BTI-TN-5B1-4 cells at 100 uM assessed as p-tyramine conversion to H2O2 by fluorescence assay; details: for inhibition (INH): human, bti-tn-5b1-4, 100 µM; for inhibition at 100 µM: BTI-TN-5B1-4, human
[4] = target: T2, Amine oxidase [flavin-containing] A; test: Inhibition of human recombinant microsomal MAO-A expressed in baculovirus-infected insect BTI-TN-5B1-4 cells at 100 uM assessed as p-tyramine conversion to H2O2 by fluorescence assay; details: for inhibition (INH): human, bti-tn-5b1-4, 100 µM; for inhibition at 100 µM: BTI-TN-5B1-4, human
[5] = target: T1, Amine oxidase [flavin-containing] B; test: Ratio of selegiline IC50 to compound IC50 for human MAO-B
[6] = target: T1, Amine oxidase [flavin-containing] B; test: Ratio of clorgyline IC50 to compound IC50 for human MAO-B
[7] = target: T2, Amine oxidase [flavin-containing] A; test: Ratio of clorgyline IC50 to compound IC50 for human MAO-A
[8] = target: Amine oxidase [flavin-containing] B (Homo sapiens) (UniProt P27338); test: Ratio of selegiline IC50 to compound IC50 for human MAO-B
[9] = target: Amine oxidase [flavin-containing] B (Homo sapiens) (UniProt P27338); test: Ratio of iproniazid IC50 to compound IC50 for human MAO-B
[10] = target: Amine oxidase [flavin-containing] B (Homo sapiens) (UniProt P27338); test: Ratio of moclobemide IC50 to compound IC50 for human MAO-B

Structure (SMILES) | Ratio IC50 (Homo sapiens) | pIC50 [1] | pIC50 [2] | further results
CN1N=C(c2ccc(O)cc2O)CC1c1cccc(F)c1 (stereo unspecified) | – | – | – | inhibition (INH) [3]: Not Active; inhibition (INH) [4]: Not Active
CN1N=C(c2ccc(O)cc2)CC1c1cccc(Cl)c1 (stereo unspecified) | 9 | 5.68 | 4.73 | –
CN1N=C(c2ccc(O)cc2)CC1c1ccc(Cl)cc1 (stereo unspecified) | 4.8 | 5.58 | 4.90 | –
CN1N=C(c2ccc(O)cc2O)CC1c1ccccc1F (stereo unspecified) | > 26 | 5.41 | – | inhibition at 100 µM [4]: 40%
Cc1cccc(C2CC(c3ccc(O)cc3)=NN2C)c1 (stereo unspecified) | 2.8 | 5.24 | 4.79 | –
Cc1ccc(C2CC(c3ccc(O)cc3O)=NN2C)cc1 (stereo unspecified) | – | – | – | inhibition at 100 µM [3]: 40%; inhibition at 100 µM [4]: 40%
CN1N=C(c2ccc(O)cc2O)CC1c1ccc(F)cc1 (stereo unspecified) | – | – | 6.09 | –
CN1N=C(c2ccc(O)cc2O)CC1c1ccccc1 (stereo unspecified) | – | – | – | inhibition at 100 µM [3]: 40%; inhibition at 100 µM [4]: 40%
Cc1ccc(C2CC(c3ccc(O)cc3)=NN2C)cc1 (stereo unspecified) | 4.8 | 5.72 | 5.04 | –
CN1N=C(c2ccc(O)cc2)CC1c1ccc(F)cc1 (stereo unspecified) | > 27 | 5.44 | – | inhibition at 100 µM [4]: 40%
CN1N=C(c2ccc(O)cc2O)CC1c1ccccc1Cl (stereo unspecified) | 3.7 | 6.52 | 5.96 | –
CN1N=C(c2ccc(O)cc2O)CC1c1ccc(Cl)cc1 (stereo unspecified) | 4.1 | 6.47 | 5.86 | –
Cc1cccc(C2CC(c3ccc(O)cc3O)=NN2C)c1 (stereo unspecified) | – | – | – | inhibition at 100 µM [3]: 40%; inhibition at 100 µM [4]: 40%
CN1N=C(c2ccc(O)cc2O)CC1c1cccc(Cl)c1 (stereo unspecified) | 2.3 | 6.74 | 6.38 | –
CN1N=C(c2ccc(O)cc2)CC1c1cccc(F)c1 (stereo unspecified) | > 31 | 5.50 | – | inhibition at 100 µM [4]: 40%
O=C(NCCN1CCOCC1)c1ccc(Cl)cc1 [MOCLOBEMIDE] | – | – | – | inhibition (INH) [3]: Not Active

The next lines start with results.

Ratio IC50 (Homo sapiens) | pIC50 [1] | pIC50 [2] | Structure (SMILES) | further results
1.1 | 4.70 | 4.66 | Cc1ccccc1C1CC(c2ccc(O)cc2)=NN1C (stereo unspecified) | –
61 | 6.08 | 4.29 | CN1N=C(c2ccccc2)CC1c1cccc(Cl)c1 (stereo unspecified) | –
145 | 8.02 | 5.86 | Cc1ccc(C2CC(c3ccccc3)=NN2C)cc1 (stereo unspecified) | Ratio IC50 [5]: ≥ 2; Ratio IC50 [6]: ≥ 2; Ratio IC50 [7]: <= 2; Ratio IC50 [8]: <= 2; Ratio IC50 [9]: <= 2; Ratio IC50 [10]: <= 2
> 3.7 | 4.57 | – | CN1N=C(c2ccc(O)cc2)CC1c1ccccc1 (stereo unspecified) | inhibition at 100 µM [4]: 40%
1.1 | 4.98 | 4.93 | CN1N=C(c2ccc(O)cc2)CC1c1ccccc1Cl (stereo unspecified) | –
30 | 6.96 | 5.49 | Cc1ccccc1C1CC(c2ccccc2)=NN1C (stereo unspecified) | –
> 27 | 5.44 | – | CN1N=C(c2ccccc2)CC1c1ccccc1Cl (stereo unspecified) | inhibition (INH) [4]: Not Active
14 | 6.92 | 5.77 | CN1N=C(c2ccccc2)CC1c1ccccc1 (stereo unspecified) | –
> 33 | 5.52 | – | CN1N=C(c2ccc(O)cc2)CC1c1ccccc1F (stereo unspecified) | inhibition at 100 µM [4]: 40%
> 25 | 5.40 | – | CN1N=C(c2ccccc2)CC1c1ccc(Cl)cc1 (stereo unspecified) | inhibition (INH) [4]: Not Active
21 | 6.85 | 5.52 | CN1N=C(c2ccccc2)CC1c1ccc(F)cc1 (stereo unspecified) | –
10 | 6.55 | 5.55 | CN1N=C(c2ccccc2)CC1c1ccccc1F (stereo unspecified) | –
1.9 | 5.69 | 5.40 | Cc1ccccc1C1CC(c2ccc(O)cc2O)=NN1C (stereo unspecified) | –
> 909 | 6.96 | – | Cc1cccc(C2CC(c3ccccc3)=NN2C)c1 (stereo unspecified) | inhibition at 100 µM [4]: 40%
30 | 7.22 | 5.74 | CN1N=C(c2ccccc2)CC1c1cccc(F)c1 (stereo unspecified) | –
